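1) Cells in 96-well plates. 2) Compound, 48 h, 5 concentrations. 3) Linear interpolation between surrounding doses. 4) Unreached endpoint = highest concentration. GI50 = concentration required for 50% inhibition of growth.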 Calls of active or inactive are those of the source. Cut-off read from the data, not from the text of the source: active = GI50 up to about 1.1 µM and inactive = higher.
Key:
Assay in all cases: growth of human tumour cells (NCI), 48 h
[1] = system: MDA-MB-435
[2] = system: T47D
[3] = system: SK-OV-3
[4] = system: SF-268
[5] = system: UACC-62
[6] = system: RPMI-8226
[7] = system: 786-0
[8] = system: M14
[9] = system: NCI-H522
[10] = system: LOX IMVI
[11] = system: RXF 393
[12] = system: OVCAR-3
[13] = system: NCI-H460
[14] = system: SF-295
[15] = system: ACHN
[16] = system: SNB-19
[17] = system: CAKI-1
[18] = system: SK-MEL-2
[19] = system: MDA-MB-231
[20] = system: SK-MEL-28

Compound	GI50 [1]	GI50 [2]	GI50 [3]	GI50 [4]	GI50 [5]	GI50 [6]	GI50 [7]	GI50 [8]	GI50 [9]	GI50 [10]	GI50 [11]	GI50 [12]	GI50 [13]	GI50 [14]	GI50 [15]	GI50 [16]	GI50 [17]	GI50 [18]	GI50 [19]	GI50 [20]
CC(C)(C)OC(=O)N(CCCCN(CCCNC(=O)C(F)(F)F)C(=O)OC(C)(C)C)CCCNC(=O)C(F)(F)F	> 100 µM (inactive)	> 100 µM (inactive)	> 100 µM (inactive)	> 100 µM (inactive)	> 100 µM (inactive)	37.7 µM (inactive)	> 100 µM (inactive)	> 100 µM (inactive)	24 µM (inactive)	> 100 µM (inactive)	> 100 µM (inactive)	45.3 µM (inactive)	> 100 µM (inactive)	> 100 µM (inactive)	> 100 µM (inactive)	> 100 µM (inactive)	47.1 µM (inactive)	> 100 µM (inactive)	> 100 µM (inactive)	> 100 µM (inactive)
O=C1C=CC(=O)c2c1ccc1c3ccccc3n(-c3ccccc3[N+](=O)[O-])c21	2.26 µM (inactive)	1.33 µM (inactive)	17 µM (inactive)	2.44 µM (inactive)	4.91 µM (inactive)	0.71 µM (active)	2.13 µM (inactive)	2.03 µM (inactive)	1.63 µM (inactive)	1.93 µM (inactive)	1.62 µM (inactive)	2.44 µM (inactive)	9.82 µM (inactive)	22.6 µM (inactive)	1.71 µM (inactive)	9.84 µM (inactive)	1.47 µM (inactive)	13.3 µM (inactive)	2.76 µM (inactive)	8.55 µM (inactive)
Cc1cc(C(C)(C)C)c(OCCCN2CCOCC2)c(C(C)(C)C)c1	19.4 µM (inactive)	15.1 µM (inactive)	20 µM (inactive)	18.7 µM (inactive)	16 µM (inactive)	14.1 µM (inactive)	17.3 µM (inactive)	16.8 µM (inactive)	17.9 µM (inactive)	20.6 µM (inactive)	16 µM (inactive)	19.2 µM (inactive)	30.9 µM (inactive)	17.5 µM (inactive)	17.4 µM (inactive)	17.3 µM (inactive)	19.1 µM (inactive)	16.5 µM (inactive)	17.4 µM (inactive)	16.4 µM (inactive)
CN(C)CCNC(=O)c1cccc2ccc(-c3ccc(O)cc3)nc12	3.74 µM (inactive)	3.09 µM (inactive)	3.01 µM (inactive)	3.92 µM (inactive)	1.39 µM (inactive)	2.39 µM (inactive)	2.63 µM (inactive)	0.664 µM (active)	1.36 µM (inactive)	0.743 µM (active)	4.72 µM (inactive)	3.13 µM (inactive)	0.548 µM (active)	2.13 µM (inactive)	1.37 µM (inactive)	1.31 µM (inactive)	1.19 µM (inactive)	4.5 µM (inactive)	0.959 µM (active)	3.15 µM (inactive)
N#Cc1nc(NC(=O)c2ccccc2)sc1N	> 10 µM (inactive)	> 4.03 µM (inactive)	> 10 µM (inactive)	> 10 µM (inactive)	> 10 µM (inactive)	9.82 µM (inactive)	> 10 µM (inactive)	> 10 µM (inactive)	> 10 µM (inactive)	> 10 µM (inactive)	> 10 µM (inactive)	> 10 µM (inactive)	> 10 µM (inactive)	> 10 µM (inactive)	> 10 µM (inactive)	> 10 µM (inactive)	> 10 µM (inactive)	> 10 µM (inactive)	> 10 µM (inactive)	> 10 µM (inactive)
